Target: T1, P-glycoprotein (P-gp) (Homo sapiens, UniProt P08183)
T1 construct: gene ABCB1
Test: Pgp-Glo luminescent P-gp ATPase assay; inhibition of paclitaxel-stimulated ATPase at […]
Assay type: biochemical

T1 sequence (P08183 whole entry): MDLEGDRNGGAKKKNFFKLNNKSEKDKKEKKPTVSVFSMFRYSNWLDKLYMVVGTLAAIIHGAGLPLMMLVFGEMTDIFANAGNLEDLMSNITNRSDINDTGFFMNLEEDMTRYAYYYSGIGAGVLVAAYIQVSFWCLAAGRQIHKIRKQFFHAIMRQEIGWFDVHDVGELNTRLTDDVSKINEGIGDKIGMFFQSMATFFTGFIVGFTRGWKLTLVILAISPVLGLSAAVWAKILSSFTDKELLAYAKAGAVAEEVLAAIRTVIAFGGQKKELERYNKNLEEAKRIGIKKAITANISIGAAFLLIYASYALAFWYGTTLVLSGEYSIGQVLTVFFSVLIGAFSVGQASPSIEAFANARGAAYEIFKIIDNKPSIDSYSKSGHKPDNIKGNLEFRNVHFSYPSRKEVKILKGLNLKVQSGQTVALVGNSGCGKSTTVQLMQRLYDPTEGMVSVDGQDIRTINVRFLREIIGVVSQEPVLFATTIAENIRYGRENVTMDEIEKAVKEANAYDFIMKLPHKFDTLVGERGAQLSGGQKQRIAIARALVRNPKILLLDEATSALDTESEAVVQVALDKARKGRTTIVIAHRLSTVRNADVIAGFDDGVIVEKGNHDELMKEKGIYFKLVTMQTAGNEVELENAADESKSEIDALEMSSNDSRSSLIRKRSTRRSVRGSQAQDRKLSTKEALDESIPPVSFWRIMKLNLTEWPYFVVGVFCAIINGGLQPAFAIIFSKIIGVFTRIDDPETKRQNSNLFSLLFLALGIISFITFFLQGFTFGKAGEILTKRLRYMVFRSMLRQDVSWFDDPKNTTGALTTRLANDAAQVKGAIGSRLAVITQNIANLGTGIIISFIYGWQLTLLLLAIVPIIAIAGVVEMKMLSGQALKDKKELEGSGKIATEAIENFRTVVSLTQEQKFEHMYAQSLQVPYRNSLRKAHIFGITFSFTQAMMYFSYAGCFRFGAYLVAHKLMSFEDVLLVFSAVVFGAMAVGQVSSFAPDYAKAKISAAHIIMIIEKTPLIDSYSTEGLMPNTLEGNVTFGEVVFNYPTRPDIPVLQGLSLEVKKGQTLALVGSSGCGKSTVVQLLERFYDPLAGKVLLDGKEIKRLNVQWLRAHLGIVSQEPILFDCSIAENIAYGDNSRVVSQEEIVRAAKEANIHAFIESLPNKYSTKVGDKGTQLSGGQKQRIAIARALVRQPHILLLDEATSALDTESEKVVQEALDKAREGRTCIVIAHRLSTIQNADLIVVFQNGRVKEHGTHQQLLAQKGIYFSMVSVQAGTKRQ

## C/C1=C\[C@@H]2[C@H](CC[C@@]3(C)O[C@@H]3[C@H]3[C@@H](O)[C@@H](C)C[C@]3(OC(=O)/C=C/c3ccccc3)C1=O)C2(C)C [EM-E-11-4]
  Pgp-Glo luminescent P-gp ATPase assay; inhibition of paclitaxel-stimulated ATPas: These results suggest that EM-E-11-4 hinders P-gp ATPase activity

Reference: PMC7066893 (Aging (Albany NY), 2020)
